Laboratory results published in patent publication US20130102631A1, “NOVEL MICROBIOCIDAL DIOXIME ETHER DERIVATIVES” (SYNGENTA CROP PROTECTION LLC, priority 2010, published 2013).

Columns and labels:
[1] = tested on: Phaeosphaeria nodorum (Septoria nodorum); assay: Phaeosphaeria nodorum (Septoria nodorum) / wheat / leaf disc preventative (glume blotch); type: in vivo; conditions: Parastagonospora nodorum, foliar, wheat leaf segments cv Kanzler, inoculated 2 days after application, assessed 5-7 days after application
Description: Phaeosphaeria nodorum (Septoria nodorum)/Wheat/Leaf Disc Preventative (Glume Blotch): Wheat leaf segments cv Kanzler were placed on agar in a 24-well plate and sprayed with formulated test compound diluted in water at an application rate of 200 ppm. The leaf disks are inoculated with a spore suspension of the fungus 2 days after application. The inoculated test leaf disks are incubated at 20° C. and 75% relative humidity under a light regime of 12/12 h (light/dark) in a climate cabinet and the activity of a compound is assessed as percent disease control compared to untreated when an appropriate level of disease damage appears in untreated check leaf disks (5-7 days after application). […]-2.508; 5.561; 2.561; E/E-2.208; P.57; 2.513; 2.559; 2.558; 2.557; 2.556; 2.555; 2.374; 2.544; 2.541; 2.539; 2.537; 2.536; 2.535; 2.533; 2.530; 2.526; 2.519; 2.510; 2.516; 2.514; E/E-5.167; E/E-3.002; 2.512

[2] = tested on: Glomerella lagenarium; assay: Glomerella lagenarium (Colletotrichum lagenarium) / liquid culture (anthracnose); type: cell-based; conditions: Colletotrichum orbiculare; at ≦200 ppm, liquid culture PDB, inhibition of growth photometrically 3-4 days after application; read-out: control of Glomerella lagenarium
Description: Glomerella lagenarium (Colletotfichum lagenarium)/Liquid Culture (Anthracnose): Conidia of the fungus from cryogenic storage were directly mixed into nutrient broth (PDB potato dextrose broth). After placing a DMSO solution of test compound into a 96-well microtiter, the nutrient broth containing the fungal spores was added. The test plates were incubated at 24° C. and the inhibition of growth is measured photometrically 3-4 days after application. […]-2.509; 5.561; 2.561; E/E-2.208; P.57; 2.513; 2.559; 2.556; 2.555; 2.374; 2.552; 2.548; 2.544; 2.541; 2.540; 2.539; 2.537; 2.536; 2.533; 2.531; 2.530; 2.528; 2.526; 2.519; 2.510; 2.516; 2.514; E/E-5.167; E/E-3.002; 2.512; 2.514; Z/E-2.474

[3] = tested on: Mycosphaerella arachidis (Cercospora arachidicola); assay: Mycosphaerella arachidis (Cercospora arachidicola) / liquid culture (early leaf spot); type: cell-based; conditions: at ≦200 ppm, liquid culture PDB, inhibition of growth photometrically 4-5 days after application, read-out: control of Mycosphaerella arachidis
Description: Mycosphaerella arachidis (Cercospora arachidicola)/Liquid Culture (Early Leaf Spot): Conidia of the fungus from cryogenic storage were directly mixed into nutrient broth (PDB potato dextrose broth). After placing a DMSO solution of test compound into a 96-well microtiter plate, the nutrient broth containing the fungal spores was added. The test plates are incubated at 24° C. and the inhibition of growth was determined photometrically 4-5 days after application. […]-2.509; 5.561; 2.561; P.57; 2.513; 2.559; 2.558; 2.557; 2.556; 2.555; 2.374; 2.553; 2.552; 2.551 (fraction B); 2.551 (fraction A); 2.544; 2.541; 2.539; 2.537; 2.536; 2.533; 2.532; 2.531; 2.530; 2.528; 2.526; 2.525 (fraction B); 2.525 (fraction A); 2.524; 2.520; 2.519; 2.510; 2.518; 2.517; 2.516; 2.514; […].002; 2.512; 2.511; 2.514

[4] = tested on: Mycosphaerella graminicola (Septoria tritici); assay: Mycosphaerella graminicola (Septoria tritici) / liquid culture (Septoria blotch); type: cell-based; conditions: Zymoseptoria tritici; at ≦200 ppm, liquid culture PDB, inhibition of growth photometrically 4-5 days after application; read-out: control of Mycosphaerella graminicola
[5] = tested on: Gaeumannomyces graminis; assay: Gaeumannomyces graminis / liquid culture (take-all of cereals); type: cell-based; conditions: at ≦200 ppm, liquid culture PDB, inhibition of growth photometrically 4-5 days after application, read-out: control of Gaeumannomyces graminis
Description: Gaeumannomyces graminis/Liquid Culture (Take-All of Cereals): Mycelial fragments of the fungus from cryogenic storage were directly mixed into nutrient broth (PDB potato dextrose broth). After placing a DMSO solution of test compound into a 96-well microtiter plate, the nutrient broth containing the fungal spores is added. The test plates were incubated at 24° C. and the inhibition of growth was determined photometrically 4-5 days after application. […]-2.509; 5.561; 2.561; P.57; 2.513; 2.559; 2.558; 2.557; 2.556; 2.555; 2.374; 2.553; 2.552; 2.551 (fraction B); 2.551 (fraction A); 2.539; 2.533; 2.528; 2.526; 2.525 (fraction B); 2.525 (fraction A); 2.524; 2.523; 2.521; 2.520; 2.519; 2.510; 2.518; 2.516; 2.514; E/E-5.167; E/E-3.002; 2.512; E/E-2.508

[6] = tested on: Thanatephorus cucumeris (Rhizoctonia solani); assay: Thanatephorus cucumeris (Rhizoctonia solani) / liquid culture (foot rot, damping-off); type: cell-based; conditions: at ≦200 ppm, liquid culture PDB, inhibition of growth photometrically 3-4 days after application, read-out: control of Thanatephorus cucumeris
Description: Thanatephorus cucumeris (Rhizoctonia solani)/Liquid Culture (Foot Rot, Damping-Off Mycelia fragments of a newly grown liquid culture of the fungus are directly mixed into nutrient broth (PDB potato dextrose broth). After placing a DMSO solution of the test compounds into a 96-well microtiter, the nutrient broth containing the fungal material was added. The test plates were incubated at 24° C. and the inhibition of growth was determined photometrically 3-4 days after application. […]-2.508 5.561; 2.561; P.57; 2.513; 2.559; 2.558; 2.553; 2.533; 2.530; 2.526; 2.519; 2.517; 2.516; 2.514; 2.512; 2.514

[7] = tested on: Monographella nivalis (Microdochium nivale); assay: Monographella nivalis (Microdochium nivale) / liquid culture (foot rot cereals); type: cell-based; conditions: at ≦200 ppm, liquid culture PDB, inhibition of growth photometrically 4-5 days after application, read-out: control of Monographella nivalis
Description: Monographella nivalis (Microdochium nivale)/Liquid Culture (Foot Rot Cereals): Conidia of the fungus from cryogenic storage were directly mixed into nutrient broth (PDB potato dextrose broth). After placing a DMSO solution of test compound into a 96-well microtiter plate, the nutrient broth containing the fungal spores was added. The test plates were incubated at 24° C. and the inhibition of growth was determined photometrically 4-5 days after application. […].57; 2.513; 2.559; 2.558; 2.556; 2.555; 2.374; 2.553; 2.551 (fraction B); 2.551 (fraction A); 2.548; 2.544; 2.542; 2.541; 2.539; 2.536; 2.535; 2.533; 2.530; 2.528; 2.526; 2.525 (fraction B); 2.525 (fraction A); 2.524; 2.519; 2.518; 2.516; 2.514; E/E-5.167; 2.512; 2.514

[8] = tested on: Blumeria graminis f. sp. tritici (Erysiphe graminis f. sp. tritici); assay: Blumeria graminis f. sp. tritici / wheat / leaf disc preventative (powdery mildew on wheat); type: in vivo; conditions: foliar, wheat leaf segments cv. Kanzler, inoculated 1 day after application, assessed 6-8 days after application
Description: Blumeria graminis f. sp. tritici (Erysiphe graminis f. sp. tritici)/Wheat/Leaf Disc Preventative (Powdery Mildew on Wheat):
Wheat leaf segments cv. Kanzler were placed on agar in a 24-well plate and sprayed with the formulated test compound diluted in water at an application rate of 200 ppm. The leaf disks were inoculated by shaking powdery mildew infected plants above the test plates 1 day after application. The inoculated leaf disks were incubated at 20° C. and 60% relative humidity under a light regime of 24 h darkness followed by 12 h/12 h (dark/light) in a climate chamber and the activity of a compound was assessed as percent disease control compared to untreated when an appropriate level of disease damage appears on untreated check leaf segments (6-8 days after application). The following compounds gave at least 80% control of Blumeria graminis: E/E-2.168, E/E-2.474, E/E-2.002; 5.561; 2.561; E/E-2.208; 2.513; 2.559; 2.557; 2.556; 2.555; 2.374; 2.552; 2.537; 2.533; 2.530; 2.528; 2.526; 2.519; 2.510; 2.516; 2.514; E/E-5.167; E/E-3.002; 2.512; 2.511

[9] = tested on: Pyrenophora teres; assay: Pyrenophora teres / barley / leaf disc preventative (net blotch); type: in vivo; conditions: foliar, barley leaf segments cv Hasso, inoculated two days after application, assessed 5-7 days after application
Description: Pyrenophora teres/Barley/Leaf Disc Preventative (Net Blotch): Barley leaf segments cv Hasso are placed on agar in a 24-well plate and sprayed with formulated test compound diluted in water at an application rate of 200 ppm. The leaf segments are inoculated with a spore suspension of the fungus two days after application of the test solution. The inoculated leaf segments are incubated at 20° C. and 65% relative humidity under a light regime of 12/12 h (light/dark) in a climate cabinet and the activity of a compound is assessed as disease control compared to untreated when an appropriate level of disease damage appears in untreated check leaf segments (5-7 days after application). […]-2.507; 5.561; 2.561; E/E-2.208; P.57; 2.513; 2.559; 2.558; 2.556; 2.555; 2.374; 2.552; 2.544; 2.537; 2.533; 2.530; 2.528; 2.519; 2.510; 2.516; 2.514; E/E-5.167; E/E-3.002; 2.512

CCOC(=O)c1ccc(C)c(/C(C)=N/OCC(C)(C)CO/N=C2\CCCc3ccc(C)nc32)n1 [Compound 2.526]
≥ 80%: pest or weed control at 200 ppm [1] | inhibition of growth at up to 200 µg/mL [2] | inhibition of growth at up to 200 µg/mL [3] | inhibition of growth at up to 200 µg/mL [4] | inhibition of growth at up to 200 µg/mL [5] | inhibition of growth at up to 200 µg/mL [6] | inhibition of growth at up to 200 µg/mL [7] | pest or weed control at 200 ppm [8]

Cc1ccc2c(n1)/C(=N/OCC(C)(C)CO/N=C/c1ccc(OCc3ccccc3)cn1)CCC2 [Compound 2.553]
≥ 80%: inhibition of growth at up to 200 µg/mL [3] | inhibition of growth at up to 200 µg/mL [4] | inhibition of growth at up to 200 µg/mL [5] | inhibition of growth at up to 200 µg/mL [6] | inhibition of growth at up to 200 µg/mL [7]

C/C(=N\OCC(C)(C)CO/N=C1\CCCc2ccc(C#CCO)nc21)c1cc(C)cc(C)n1 [Compound 2.558]
≥ 80%: pest or weed control at 200 ppm [1] | pest or weed control at 200 ppm [9] | inhibition of growth at up to 200 µg/mL [3] | inhibition of growth at up to 200 µg/mL [4] | inhibition of growth at up to 200 µg/mL [5] | inhibition of growth at up to 200 µg/mL [6] | inhibition of growth at up to 200 µg/mL [7]
